For orientation: IC50 means the concentration that gives 50% inhibition. Usually melting point stands for the temperature of the solid-liquid transition.

Entries after “also recorded” stand apart in the source; their conditions may differ.

The text below walks through data of patent US20150191445A1, “ACYL-HYDRAZONE AND OXADIAZOLE COMPOUNDS, PHARMACEUTICAL COMPOSITIONS CONTAINING THE SAME AND USES THEREOF” (Universidade Federal de Santa Catarina, priority 2011, published 2015).

One data set deals with REH cells. As to the kind of experiment: MTT cytotoxicity assay, REH cell line. It is filed as cell-based, human. The following applies: 48 h of treatment. Here is the method: (§1) All compounds were resuspended in DMSO at stock concentration of 20 mM and stored at −20° C. For cytotoxicity testing, the dilutions from the stock solutions were made in culture medium (RPMI-1640 plus 10% of fetal bovine serum, 100 IU/ml penicillin and 100 µg/mL Streptomycin), immediately before being discharged to the cells.
(§2) The REH and Jurkat cell lines were maintained in
(§3) RPMI-1640 medium with 10% FBS (fetal bovine serum), 100 IU/mL penicillin, 100 µg/mL streptomycin and incubated at 37° C. and 5% CO2. Cytotoxicity assays were performed according to the method described in the literature (Pieters, R.; et al. In vitro drug sensitivity of cells from children with leukemia using the MTT assay with improved culture conditions. Blood, 1990, 76, 2327-2336; Pieters, R.; et al. Relation of cellular drug resistance to long-term clinical outcome in childhood acute lymphoblastic leukaemia. Lancet, 1991, 338, 399-403 e Kaspers, G. J.; et al. In vitro cellular drug resistance and prognosis in newly diagnosed childhood acute lymphoblastic leukemia. Blood, 1997, 90, 2723). Cells were resuspended at a concentration of 3.75 10^5 cells/mL in culture medium as described. Eighty microliters of this suspension were seeded into plates with 96 round-bottom wells, containing 20 microliters of different concentrations of compound or vehicle alone. Each treatment was done in triplicate. After 48 hours of incubation at 37° C. and 5% CO2, 20 μL of MTT solution was added (5 mg/mL of 1x PBS), followed by further incubation for 4 hours and 30 minutes at 37° C. and 5% CO2. During these 4 hours and 30 minutes, MTT (yellowish) is metabolized to formazan salt (bluish in color) by living cells. After this, 100 μL sodium dodecyl sulphate (SDS) 10%+0.1M of HCl were added to dissolve the formazan crystals. After incubating overnight, absorbance reading at 570 nm was carried out. The percentage of cells surviving the treatment were calculated relative to the number of surviving cells in the medium without addition of the compounds in question (“negative control”).
(§4) c) Determination of IC: IC50 is defined as the concentration of a compound at which 50% of maximal inhibition is obtained. After reading the absorbance, survival curves were constructed and the values of IC50 were obtained with the GraphPad Prism software.

The next data set concerns Jurkat cells. As to the kind of experiment: MTT cytotoxicity assay, Jurkat cell line. It is filed as cell-based, human. The following applies: 48 h of treatment, read-out: IC50 T (Jurkat). Here is the method: as §1, §2, §3, §4
Background: Formazan colour is commonly taken as a measure of viable cells.

Data set [1] relates to human leukemic Jurkat cells and HEK. As to the kind of experiment: Screening of compounds by cell viability assay (MTT) in leukemic cells. It is filed as cell-based. Particulars: leukemic cells of Jurkat and HEK strains. Here is the method:
RPMI-1640 medium with 10% FBS (fetal bovine serum), 100 IU/mL penicillin, 100 µg/mL streptomycin and incubated at 37° C. and 5% CO2. Cytotoxicity assays were performed according to the method described in the literature (Pieters, R.; et al. In vitro drug sensitivity of cells from children with leukemia using the MTT assay with improved culture conditions. Blood, 1990, 76, 2327-2336; Pieters, R.; et al. Relation of cellular drug resistance to long-term clinical outcome in childhood acute lymphoblastic leukaemia. Lancet, 1991, 338, 399-403 e Kaspers, G. J.; et al. In vitro cellular drug resistance and prognosis in newly diagnosed childhood acute lymphoblastic leukemia. Blood, 1997, 90, 2723). Cells were resuspended at a concentration of 3.75 10^5 cells/mL in culture medium as described. Eighty microliters of this suspension were seeded into plates with 96 round-bottom wells, containing 20 microliters of different concentrations of compound or vehicle alone. Each treatment was done in triplicate. […] After incubating overnight, absorbance reading at 570 nm was carried out. The percentage of cells surviving the treatment were calculated relative to the number of surviving cells in the medium without addition of the compounds in question (“negative control”). […]

Data set [2] concerns the target Trypanosoma cruzi cruzain (Trypanosoma cruzi, UniProt P25779). Particulars: cited from earlier work.
For data set [3], the system named is healthy and phytohemagglutinin-stimulated lymphocytes. The experiment in a line: MTT assay on normal lymphocytes stimulated with phytohemagglutinin. The following applies: for Percentage of survival: 48 h, MTT. It is filed as cell-based, human. Here is the method:
for the test of compound 07 against normal lymphocytes, blood from human donors was separated in a ficoll gradient and the mononuclear cells were cultivated at 200,000 cells/well, in 80 microliters of RPMI-1640 (containing 10% FBS, 100 IU/mL penicillin and 100 μg/mL streptomycin) and 20 microliters of phytohemagglutinin solution (Cultilab) in each well for stimulation of T lymphocytes. Compound 07 was added in serial dilutions (50%) from 300 to 1 nm. As a control, parallel tests were run with cells from leukemic Jurkat and REH cell lines, and experiments with colchicine with the same concentrations as compound 07. Cytotoxicity was assessed after 48 hours by the MTT method, as described Above.

Trypanosoma cruzi cruzain, sequence (P25779 123-467): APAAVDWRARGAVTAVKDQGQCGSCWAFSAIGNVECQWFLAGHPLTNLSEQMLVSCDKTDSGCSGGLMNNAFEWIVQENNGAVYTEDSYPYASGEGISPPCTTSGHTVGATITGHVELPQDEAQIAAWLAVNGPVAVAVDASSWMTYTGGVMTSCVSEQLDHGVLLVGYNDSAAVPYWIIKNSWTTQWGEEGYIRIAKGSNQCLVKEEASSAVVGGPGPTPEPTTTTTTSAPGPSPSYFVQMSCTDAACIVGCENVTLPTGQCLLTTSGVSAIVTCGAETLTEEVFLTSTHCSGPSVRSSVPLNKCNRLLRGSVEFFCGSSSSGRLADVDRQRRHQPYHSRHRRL

As to `COc1cc(C(=O)NN=Cc2ccc(Br)cc2)cc(OC)c1OC` [Compound 02], the values for the 50% inhibitory concentration (IC50) in the data set with REH cells and in the data set with Jurkat cells were 33.7 nM and 31.4 nM, respectively. Further, the antileukemic activity result in data set [1] was “excellent antileukemic activity; also recorded: significant antileukemic activity”. In addition, the “inhibitory activity of cruzain” value in data set [2] is recorded as “did not show inhibitory activity”.

On to `COc1cc(/C=N/NC(=O)c2cc(OC)c(OC)c(OC)c2)cc(I)c1O` [Compound 05], for which the melting point is 247 to 248 °C.

As for `COc1cc(C(=O)NN=Cc2ccc(Cl)cc2)cc(OC)c1OC` [Compound 09], the half-maximal inhibitory concentration (IC50) in the data set on REH cells worked out at 328 nM; with Jurkat cells, 203 nM.

On to `COc1cc(C(=O)NN=Cc2ccc3c(c2)OCO3)cc(OC)c1OC` [Compound 10], for which the concentration for half-maximal inhibition (IC50) came to 206 nM with REH cells and 154 nM in the data set with Jurkat cells.

As for `COc1cc(C(=O)NN=Cc2ccccc2Cl)cc(OC)c1OC` [Compound 11], the IC50 is 459 nM with REH cells and 189 nM in the data set on Jurkat cells.

On to `COc1cc(C(=O)NN=Cc2ccc(C)cc2)cc(OC)c1OC` [Compound 16], for which the concentration for half-maximal inhibition (IC50) was 70.6 nM with REH cells and 71.5 nM in the data set on Jurkat cells.

Consider `COc1cc(C(=O)N/N=C/c2cnc[nH]2)cc(OC)c1OC` [Compound 17], for which the melting point lay within 230 to 231 °C.

As for `COc1cccc(OC)c1/C=N/NC(=O)c1cc(OC)c(OC)c(OC)c1` [Compound 21], the melting point is 245 to 246 °C.

Take `COc1cc(C(=O)N/N=C/c2ccc(Br)cc2O)cc(OC)c1OC` [Compound 26]: the melting point was in the range of 206 to 208 °C.

For the compound `COc1cc(C(=O)N/N=C/c2ccc(Cl)c(C(F)(F)F)c2)cc(OC)c1OC` [Compound 29], the melting point is 203 to 204 °C.

`COc1cc(C2OC(c3cc(OC)c(OC)c(OC)c3)=NN2C(C)=O)cc(Br)c1O` (stereo not drawn) [Compound 36]: the melting point is 177 to 179 °C.

Take `COc1cc(C2OC(c3cc(OC)c(OC)c(OC)c3)=NN2C(C)=O)ccc1O` (stereo not drawn) [Compound 37]: the melting point is 170 to 172 °C.

The compound `COc1cc(C2=NN(C(C)=O)C(c3cccc4ccccc34)O2)cc(OC)c1OC` (stereo not drawn) [Compound 38] displayed a melting point of 189 to 192 °C.

As for Colchicine [reference compound], the IC50 with REH cells was 9.5 nM; in the data set on Jurkat cells it was 7.7 nM. Moreover, the Percentage of survival is 109% in data set [3] (4.6 nM); 110% in data set [3] (9.38 nM); 95% in data set [3] (18.75 nM); 84% in data set [3] (37.5 nM); 75% in data set [3] (75 nM); 69% in data set [3] (150 nM). Besides, the Percentage of survival in data set [3] (300 nM) is reported as 63%. Further, in data set [3] (300 nM), the “toxicity relative to the control / inhibition on the viability of lymphocytes T” value turned out to be 37%.
